In patent US20230105212A1, “BIPHENYL DERIVATIVE INHIBITOR, PREPARATION METHOD THEREFOR AND USE THEREOF” (SHANGHAI HANSOH BIOMEDICAL CO., LTD., priority 2020, published 2023):

Tests used:
[1] = biological target: T1, human PD-L1 protein (Homo sapiens, UniProt Q9NZQ7); test: Thermal shift: melting temperature of PD-L1 protein; assay type: binding; conditions: compound 10 μM, PD-L1 protein 2 μM, Tm minus DMSO vehicle control; for ΔTm at 10 µM: read-out: ΔTm (° C.)
T1 construct: purchased Acro Biosystems PD1-H5229
T1 sequence (Q9NZQ7 19-238 limits assumed): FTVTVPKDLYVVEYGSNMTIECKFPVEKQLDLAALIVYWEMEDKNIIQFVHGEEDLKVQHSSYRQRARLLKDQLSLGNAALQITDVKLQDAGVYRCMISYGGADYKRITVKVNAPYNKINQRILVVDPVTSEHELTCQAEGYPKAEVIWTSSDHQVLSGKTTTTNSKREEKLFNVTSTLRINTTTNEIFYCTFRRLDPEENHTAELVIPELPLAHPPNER
Procedure: Test Embodiment 4. Test of Combination of the Compounds of the Present Disclosure to Improve the Stability (Melting Temperature) of PD-L1 Protein Experimental purpose: To test the ability of compounds to enhance the stability of PD-L1 protein and increase the melting temperature of the protein. Experimental method: […] A solution containing […] HEPES, SYPRO Orange, and 150 mM NaCl was prepared as experimental buffer, and human PD-L1 protein was added at a final concentration of 2 μM. […] PCR tube was put into the PCR machine, and the melt curve function was selected to detect the melting temperature of PD-L1 protein in different treatment groups (heated from 25° C. to 95° C., 0.03° C./s). The experimental data file of the PCR instrument was imported into the thermal shift software to obtain the melting temperature (Tm) of each treatment group, and the Tm of the DMSO vehicle control group was subtracted to obtain the change value (ΔTm) of the melting temperature, as shown in the following table: […]

[2] = biological target: T2, PD-L1 protein on the surface of MC38-hPDL1 tumor cells (Homo sapiens, UniProt Q9NZQ7); test: Induction of endocytosis of PD-L1 on the surface of tumor cells (flow cytometry); assay type: cell-based; conditions: 16 hours incubation; for Emax: MC38-hPDL1 cells, read-out: MC38 maximum endocytosis rate; for IC50: inducing endocytosis of PD-L1, MC38-hPDL1 cells, read-out: MC38 IC50
T2 construct: expressed in transfected cells; host or cells: MC38-hPDL1 (mouse colon cancer cells)
T2 sequence (Q9NZQ7 19-290): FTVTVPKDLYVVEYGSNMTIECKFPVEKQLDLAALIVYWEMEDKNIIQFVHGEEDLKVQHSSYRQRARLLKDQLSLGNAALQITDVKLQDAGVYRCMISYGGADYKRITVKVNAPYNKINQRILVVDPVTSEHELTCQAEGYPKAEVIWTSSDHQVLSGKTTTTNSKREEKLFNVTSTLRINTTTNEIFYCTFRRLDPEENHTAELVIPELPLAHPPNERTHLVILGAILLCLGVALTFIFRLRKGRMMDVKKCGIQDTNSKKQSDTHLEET
Outline: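 MC38-hPDL1 mouse colon cancer cells overexpressing human PD-L1 were exposed to compound dilutions for 16 h at 37 °C. Surface PD-L1 was then stained with PE anti-human CD274 for 30 min at room temperature and measured by flow cytometry. Endocytosis rate versus concentration was fitted by nonlinear regression to give IC50.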

COc1nc(-c2cccc(-c3cccc(NC(=O)c4nc5c(n4C)CCN(C)C5)c3Cl)c2Cl)ccc1CN1CCN(C(=O)C(C)C)CC1 [Embodiment 199, N-(2,2′-Dichloro-3′-(5-((4-isobutyrylpiperazin-1-yl)methyl)-6-methoxypyridin-2-yl)-[1,1′-biphenyl]-3-yl)-1,5-dimethyl-4,5,6,7-tetrahydro-1H-imidazo[4,5-c]pyridine-2-carboxamide]
ΔTm at 10 µM [1]: 11.4 °C
Emax [2]: 93%

COc1nc(-c2cccc(-c3cccc(NC(=O)c4nc5c(n4C)CCN(C)C5)c3Cl)c2Cl)ccc1CN1CCN(C(=O)C2CC2)CC1 [Embodiment 200, N-(2,2′-Dichloro-3′-(5-((4-(cyclopropylcarbonyl)piperazin-1-yl)methyl)-6-methoxypyridin-2-yl)-[1,1′-biphenyl]-3-yl)-1,5-dimethyl-4,5,6,7-tetrahydro-1H-imidazo[4,5-c]pyridine-2-carboxamide]
ΔTm at 10 µM [1]: 12.5 °C
Emax [2]: 95%

CCC(=O)N1CCN(Cc2ccc(-c3cccc(-c4cccc(NC(=O)c5nc6c(n5C)CCN(C)C6)c4Cl)c3Cl)nc2OC)CC1 [Embodiment 201, N-(2,2′-Dichloro-3′-(6-methoxy-5-((4-propionylpiperazin-1-yl)methyl)pyridin-2-yl)-[1,1′-biphenyl]-3-yl)-1,5-dimethyl-4,5,6,7-tetrahydro-1H-imidazo[4,5-c]pyridine-2-carboxamide]
ΔTm at 10 µM [1]: 12.1 °C
Emax [2]: 94%

COc1nc(-c2cccc(-c3cccc(NC(=O)c4nc5c(n4C)CCN(C)C5)c3Cl)c2Cl)ccc1CN1CCN(C(C)=O)CC1 [Embodiment 203, N-(3′-(5-((4-Acetylpiperazin-1-yl)methyl)-6-methoxypyridin-2-yl)-2,2′-dichloro-[1,1′-biphenyl]-3-yl)-1,5-dimethyl-4,5,6,7-tetrahydro-1H-imidazo[4,5-c]pyridine-2-carboxamide]
ΔTm (° C.) [1]: 10.5 °C
ΔTm at 10 µM [1]: 13.5 °C
Emax [2]: 95%

COc1nc(-c2cccc(-c3cccc(NC(=O)c4nc5c(n4C)CCN(C)C5)c3Cl)c2Cl)ccc1CN1CC2CC(C1)N2C(C)=O [Embodiment 206, N-(3′-(5-((6-Acetyl-3,6-diazabicyclo[3.1.1]heptan-3-yl)methyl)-6-methoxypyridin-2-yl)-2,2′-dichloro-[1,1′-biphenyl]-3-yl)-1,5-dimethyl-4,5,6,7-tetrahydro-1H-imidazo[4,5-c]pyridine-2-carboxamide]
ΔTm at 10 µM [1]: 11.6 °C
Emax [2]: 90%

COc1nc(-c2cccc(-c3cccc(NC(=O)c4nc5c(n4C)CCN(C)C5)c3Cl)c2Cl)ccc1CN1C2CC1CN(C(=O)C(C)C)C2 [Embodiment 210, N-(2,2′-Dichloro-3′-(5-((3-isobutyryl-3,6-diazabicyclo[3.1.1]heptan-6-yl)methyl)-6-methoxypyridin-2-yl)-[1,1′-biphenyl]-3-yl)-1,5-dimethyl-4,5,6,7-tetrahydro-1H-imidazo[4,5-c]pyridine-2-carboxamide]
ΔTm at 10 µM [1]: 10.7 °C
Emax [2]: 88%

COc1nc(-c2cccc(-c3cccc(NC(=O)c4nc5c(n4C)CCN(C)C5)c3Cl)c2Cl)ccc1CN1CCC(C#N)CC1 [Embodiment 211, N-(2,2′-Dichloro-3′-(5-((4-cyanopiperidin-1-yl)methyl)-6-methoxypyridin-2-yl)-[1,1′-biphenyl]-3-yl)-1,5-dimethyl-4,5,6,7-tetrahydro-1H-imidazo[4,5-c]pyridine-2-carboxamide]
ΔTm at 10 µM [1]: 14.6 °C
Emax [2]: 95%
IC50 [2]: 3.1 nM

COc1nc(-c2cccc(-c3cccc(NC(=O)c4nc5c(n4C)CCN(C)C5)c3Cl)c2Cl)ccc1CN1CCC(C)(C#N)CC1 [Embodiment 212, N-(2,2′-Dichloro-3′-(5-((4-cyano-4-methylpiperidin-1-yl)methyl)-6-methoxypyridin-2-yl)-[1,1′-biphenyl]-3-yl)-1,5-dimethyl-4,5,6,7-tetrahydro-1H-imidazo[4,5-c]pyridine-2-carboxamide]
ΔTm at 10 µM [1]: 14.9 °C
Emax [2]: 94%
IC50 [2]: 11.6 nM
